{"source": "patent US6409716B1", "about": "“Drug delivery” (Scimed Life Systems, Inc., priority 1989, dated 2002)", "tested_on": "intracoronary thrombus", "test": "Local delivery of urokinase from hydrogel-coated balloon during balloon angioplasty in patients", "format": "in vivo", "settings": "all 11 patients; balloon immersed in 50,000 units/ml; pressure in excess of 2 atmospheres; 1-2 inflations, 1-5 minutes", "description": "To evaluate the efficacy of local delivery of urokinase during balloon angioplasty in treating intracoronary thrombus according to the invention, 11 patients were treated with hydrogel-coated balloons which had been immersed in a concentrated solution of urokinase (50,000 units/ml). Eight patients presented with acute myocardial infarctions, while the remaining three had unstable angina. Five patients had received intravenous thrombolytic therapy, including systemic thrombolysis. Conventional balloon angioplasty was initially performed in 9 of the 11 patients and was complicated either by acute thrombotic closure (n=7) or slow antegrade flow with the appearance of intracoronary thrombus (n=2). The remaining 2 patients had coronary stenoses with angiographic evidence of thrombus, but were not initially treated with conventional angioplasty.", "data": [{"substance": "urokinase", "values": [{"measurement": "outcome of balloon dilatation with urokinase-impregnated, hydrogel-coated balloon", "result": "reversal of abrupt closure and dissolution of intracoronary thrombus"}]}]}
